Laboratory results taken from BigSolDB 2.1.

CCOC(=O)C1(c2ccccc2)CCN(CCC(C#N)(c2ccccc2)c2ccccc2)CC1
solubility (mole fraction) (in acetonitrile, 278.15 K): 0.00208
solubility (mole fraction) (in acetonitrile, 283.15 K): 0.00256
solubility (mole fraction) (in acetonitrile, 288.15 K): 0.0033
solubility (mole fraction) (in acetonitrile, 293.15 K): 0.00386
solubility (mole fraction) (in acetonitrile, 298.15 K): 0.00492
solubility (mole fraction) (in acetonitrile, 303.15 K): 0.0059
solubility (mole fraction) (in acetonitrile, 308.15 K): 0.00738
solubility (mole fraction) (in acetonitrile, 313.15 K): 0.00941
solubility (mole fraction) (in acetonitrile, 318.15 K): 0.0126
solubility (mole fraction) (in ethanol, 278.15 K): 0.000882
solubility (mole fraction) (in ethanol, 283.15 K): 0.00109
solubility (mole fraction) (in ethanol, 288.15 K): 0.00127
solubility (mole fraction) (in ethanol, 293.15 K): 0.00154
solubility (mole fraction) (in ethanol, 298.15 K): 0.00193
solubility (mole fraction) (in ethanol, 303.15 K): 0.00227
solubility (mole fraction) (in ethanol, 308.15 K): 0.00277
solubility (mole fraction) (in ethanol, 313.15 K): 0.0034
solubility (mole fraction) (in ethanol, 318.15 K): 0.00432
solubility (mole fraction) (in isopropanol, 278.15 K): 0.000106
solubility (mole fraction) (in isopropanol, 283.15 K): 0.000155
solubility (mole fraction) (in isopropanol, 288.15 K): 0.000208
solubility (mole fraction) (in isopropanol, 293.15 K): 0.000274
solubility (mole fraction) (in isopropanol, 298.15 K): 0.000421
solubility (mole fraction) (in isopropanol, 303.15 K): 0.000601
solubility (mole fraction) (in isopropanol, 308.15 K): 0.000838
solubility (mole fraction) (in isopropanol, 313.15 K): 0.00114
solubility (mole fraction) (in isopropanol, 318.15 K): 0.00156
solubility (mole fraction) (in methanol, 278.15 K): 0.00341
solubility (mole fraction) (in methanol, 283.15 K): 0.00419
solubility (mole fraction) (in methanol, 288.15 K): 0.00501
solubility (mole fraction) (in methanol, 293.15 K): 0.0063
solubility (mole fraction) (in methanol, 298.15 K): 0.00759
solubility (mole fraction) (in methanol, 303.15 K): 0.00952
solubility (mole fraction) (in methanol, 308.15 K): 0.0118
solubility (mole fraction) (in methanol, 313.15 K): 0.0147
solubility (mole fraction) (in methanol, 318.15 K): 0.0186
solubility (mole fraction) (in water, 278.15 K): 4.09e-06
solubility (mole fraction) (in water, 283.15 K): 5.3e-06
solubility (mole fraction) (in water, 288.15 K): 6.84e-06
solubility (mole fraction) (in water, 293.15 K): 9.18e-06
solubility (mole fraction) (in water, 298.15 K): 1.14e-05
solubility (mole fraction) (in water, 303.15 K): 1.48e-05
solubility (mole fraction) (in water, 308.15 K): 1.91e-05
solubility (mole fraction) (in water, 313.15 K): 2.54e-05
solubility (mole fraction) (in water, 318.15 K): 3.28e-05
